{"source": "paper PMC10178848", "about": "“Modulating fast skeletal muscle contraction protects skeletal muscle in animal models of Duchenne muscular dystrophy” (The Journal of Clinical Investigation, 2023)", "key": {"mouse TA muscle": {"test_system": "mouse TA muscle", "experiment": "In situ TA force and lengthening injury", "assay_type": "in vivo", "settings": "oral", "description": "Measurement of isometric force and eccentric injury response in situ was performed in mouse TA muscle based on published protocols ([30]). Mice were anesthetized with 2% isoflurane (0.7%–1.5% maintenance) on a 37°C platform. The distal tendon to the TA and EDL muscle was attached with 4-0 suture a servomotor (Aurora Scientific). The sciatic nerve was exposed at the knee for hook electrodes. For compound assessment, baseline isometric contraction was assessed at 25–175 Hz (9 mA, 300 ms) followed by 100 Hz stimuli every 5 minutes. After 15 minutes, compound was dosed PO, and recording continued for 4 hours followed by a second force frequency. For in situ eccentric injury, compound was administered PO, muscle was stimulated every 5 minutes at 100 Hz for 3.5 hours, and then 2 lengthening contractions were performed (10 min apart, 100 ms at 150 Hz, then lengthening 0.2 L0 at 2 L0/s and hold for 100 ms). Isometric force before and 10 minutes after the injury contractions was recorded."}, "mdx EDL muscle": {"test_system": "mdx EDL muscle", "experiment": "Procion orange dye uptake after eccentric contraction", "design": "species or system mouse", "description": "For procion imaging, injury protocols were performed in 1% procion MX Dye (020 Brilliant Orange, Jacquard Products) and fixed in cold 4% paraformaldehyde and then cold 30% sucrose/PBS before cryosection. Laminin immunohistochemistry used rabbit polyclonal (L9393, Sigma-Aldrich, 1:20) and chicken anti-rabbit Alexa Fluor 488 (Invitrogen, 1:500). Slides were scanned at ×20 with Nikon Te-2000 dark-field microscopy and analyzed with Imaris software (Bitplane AG). Imaris’ surface component algorithm was used to detect procion-labeled fiber boundaries. Nonspecific procion staining of the peripheral tendon and outer layer of cells (where handling could cause injury) was excluded by applying a size and location filter (>2× average fiber size and located adjacent to laminin-positive fibers at the edge of the muscle). Each fiber was identified with an ID and color coded before calculation."}, "WT or mdx mice": {"test_system": "WT or mdx mice", "experiment": "Rotarod endurance", "assay_type": "in vivo, mouse", "settings": "single doses up to 10 mg/kg, 4 hours after oral administration", "description": "Prior to in vivo assessments, mice were dosed PO after a 2-hour fast with 10 mL/Kg suspensions. Grip strength and rotarod assessments were performed masked, 4 hours after dosing using published protocols ([66], [67]). Grip strength was performed with a Columbus Instruments Rodent Force Meter. Forepaw strength represented the average of 5 trials with 30-second rest periods, normalized by BW. Rotarod endurance was performed with a Columbus Instruments RotaMax. Mice were placed on the device drum at 1 rpm, which accelerated 1 rpm every 3 seconds to 12 rpm and a maximal time of 500 seconds. This was repeated 3 times with a 3-minute rest and total time reported. Voluntary wheel running performance was assessed with a customized system. Timestamped RPMs were measured 24 hours per day by infrared sensors, and a custom software calculated distance. Whole-body EBD was visualized after intravenous administration ([35]). EBD in PBS at 10 mg/mL was sterile filtered, and 50 μL/10 g BW was injected via tail vein. After 24 hours, animals were sacrificed, skin was removed and fixed in 4% formalin for 24 hours, and photographed using a Leica/Lumix camera."}, "[1]": {"molecular_target": "T1, ABL1(T315I)-phosphorylated (Homo sapiens, UniProt P00519, T315I)", "T1 construct": "purchased Eurofins DiscoverX (KINOMEscan; SAFETYscan E/IC50 ELECT)", "experiment": "KINOMEscan scanEDGE", "assay_type": "binding", "settings": "20 uM"}, "ABL1-nonphosphorylated": {"molecular_target": "T2, ABL1-nonphosphorylated (Homo sapiens, UniProt P00519)", "T2 construct": "purchased Eurofins DiscoverX (KINOMEscan; SAFETYscan E/IC50 ELECT)", "experiment": "KINOMEscan scanEDGE", "assay_type": "binding", "settings": "20 uM"}, "AXL": {"molecular_target": "T3, AXL (Homo sapiens, UniProt P30530)", "T3 construct": "purchased Eurofins DiscoverX (KINOMEscan; SAFETYscan E/IC50 ELECT)", "experiment": "KINOMEscan scanEDGE", "assay_type": "binding", "settings": "20 uM"}, "BRAF(V600E)": {"molecular_target": "T4, BRAF(V600E) (Homo sapiens, UniProt P15056, V600E)", "T4 construct": "purchased Eurofins DiscoverX (KINOMEscan; SAFETYscan E/IC50 ELECT)", "experiment": "KINOMEscan scanEDGE", "assay_type": "binding", "settings": "20 uM"}, "CDK9": {"molecular_target": "T5, CDK9 (Homo sapiens, UniProt P50750)", "T5 construct": "purchased Eurofins DiscoverX (KINOMEscan; SAFETYscan E/IC50 ELECT)", "T5 sequence (P50750 whole entry)": "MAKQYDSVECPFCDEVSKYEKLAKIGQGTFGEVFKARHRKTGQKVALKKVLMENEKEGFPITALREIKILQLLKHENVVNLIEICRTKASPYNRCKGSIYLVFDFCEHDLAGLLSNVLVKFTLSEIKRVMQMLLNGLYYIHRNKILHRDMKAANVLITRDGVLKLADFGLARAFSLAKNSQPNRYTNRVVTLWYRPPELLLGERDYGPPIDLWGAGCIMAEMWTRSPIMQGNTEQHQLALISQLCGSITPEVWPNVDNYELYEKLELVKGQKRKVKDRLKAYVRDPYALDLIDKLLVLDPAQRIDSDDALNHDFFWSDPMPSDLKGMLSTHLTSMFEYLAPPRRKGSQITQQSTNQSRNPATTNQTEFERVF", "experiment": "KINOMEscan scanEDGE", "assay_type": "binding", "settings": "20 uM"}, "CHEK1": {"molecular_target": "T6, CHEK1 (Homo sapiens, UniProt O14757)", "T6 construct": "purchased Eurofins DiscoverX (KINOMEscan; SAFETYscan E/IC50 ELECT)", "T6 sequence (O14757 whole entry)": "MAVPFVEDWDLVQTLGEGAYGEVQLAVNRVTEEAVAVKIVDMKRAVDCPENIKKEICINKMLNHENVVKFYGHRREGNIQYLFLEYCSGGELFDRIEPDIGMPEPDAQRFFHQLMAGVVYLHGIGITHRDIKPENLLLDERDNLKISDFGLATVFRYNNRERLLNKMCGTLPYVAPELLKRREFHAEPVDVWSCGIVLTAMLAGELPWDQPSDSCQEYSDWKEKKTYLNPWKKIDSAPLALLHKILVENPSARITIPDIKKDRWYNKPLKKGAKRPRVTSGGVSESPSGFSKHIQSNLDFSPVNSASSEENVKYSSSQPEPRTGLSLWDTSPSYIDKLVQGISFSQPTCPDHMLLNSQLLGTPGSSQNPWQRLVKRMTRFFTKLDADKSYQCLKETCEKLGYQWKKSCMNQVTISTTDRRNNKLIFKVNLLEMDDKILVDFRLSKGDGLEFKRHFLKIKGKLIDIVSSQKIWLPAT", "experiment": "KINOMEscan scanEDGE", "assay_type": "binding", "settings": "20 uM"}, "ERBB4": {"molecular_target": "T7, ERBB4 (Homo sapiens, UniProt Q15303)", "T7 construct": "purchased Eurofins DiscoverX (KINOMEscan; SAFETYscan E/IC50 ELECT)", "experiment": "KINOMEscan scanEDGE", "assay_type": "binding", "settings": "20 uM"}, "FGFR3": {"molecular_target": "T8, FGFR3 (Homo sapiens, UniProt P22607)", "T8 construct": "purchased Eurofins DiscoverX (KINOMEscan; SAFETYscan E/IC50 ELECT)", "T8 sequence (P22607 23-806)": "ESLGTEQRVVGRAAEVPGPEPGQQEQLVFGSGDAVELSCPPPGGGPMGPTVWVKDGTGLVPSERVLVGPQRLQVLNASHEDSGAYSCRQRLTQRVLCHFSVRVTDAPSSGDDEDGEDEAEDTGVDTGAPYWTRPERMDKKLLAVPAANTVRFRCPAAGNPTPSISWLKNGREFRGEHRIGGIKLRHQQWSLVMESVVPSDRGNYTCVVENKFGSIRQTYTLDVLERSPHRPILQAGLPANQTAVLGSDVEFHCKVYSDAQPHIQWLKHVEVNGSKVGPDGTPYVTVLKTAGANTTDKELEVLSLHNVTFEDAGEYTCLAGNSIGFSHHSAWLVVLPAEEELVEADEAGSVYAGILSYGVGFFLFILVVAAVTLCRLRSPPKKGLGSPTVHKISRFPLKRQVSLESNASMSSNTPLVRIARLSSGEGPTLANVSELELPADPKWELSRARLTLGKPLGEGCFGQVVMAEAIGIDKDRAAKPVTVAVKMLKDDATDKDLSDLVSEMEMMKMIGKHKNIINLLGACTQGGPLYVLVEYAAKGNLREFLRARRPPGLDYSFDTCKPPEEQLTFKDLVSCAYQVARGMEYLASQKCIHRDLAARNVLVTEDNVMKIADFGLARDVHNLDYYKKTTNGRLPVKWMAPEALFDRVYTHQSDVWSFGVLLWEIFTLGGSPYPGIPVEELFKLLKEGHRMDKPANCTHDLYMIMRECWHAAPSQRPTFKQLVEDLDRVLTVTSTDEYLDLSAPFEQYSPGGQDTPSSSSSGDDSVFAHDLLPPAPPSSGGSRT", "experiment": "KINOMEscan scanEDGE", "assay_type": "binding", "settings": "20 uM"}, "GSK3B": {"molecular_target": "T9, GSK3B (Homo sapiens, UniProt P49841)", "T9 construct": "purchased Eurofins DiscoverX (KINOMEscan; SAFETYscan E/IC50 ELECT)", "T9 sequence (P49841 whole entry)": "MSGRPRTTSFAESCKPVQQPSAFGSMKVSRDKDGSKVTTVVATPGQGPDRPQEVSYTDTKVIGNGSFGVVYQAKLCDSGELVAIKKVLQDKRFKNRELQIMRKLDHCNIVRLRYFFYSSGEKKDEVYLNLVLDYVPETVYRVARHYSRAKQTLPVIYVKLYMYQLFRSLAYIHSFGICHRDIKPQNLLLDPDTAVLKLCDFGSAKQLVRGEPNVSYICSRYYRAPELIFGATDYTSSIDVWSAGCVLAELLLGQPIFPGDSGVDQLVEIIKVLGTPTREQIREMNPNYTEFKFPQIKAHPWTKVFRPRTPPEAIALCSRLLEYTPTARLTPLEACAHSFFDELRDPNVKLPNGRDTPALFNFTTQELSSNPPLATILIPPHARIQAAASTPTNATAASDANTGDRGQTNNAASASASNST", "experiment": "KINOMEscan scanEDGE", "assay_type": "binding", "settings": "20 uM"}, "[2]": {"molecular_target": "T10, JAK2(JH1domain-catalytic) (Homo sapiens, UniProt O60674)", "T10 construct": "JAK2(JH1domain-catalytic); purchased Eurofins DiscoverX (KINOMEscan; SAFETYscan E/IC50 ELECT)", "T10 sequence (O60674 840-1132 limits assumed)": "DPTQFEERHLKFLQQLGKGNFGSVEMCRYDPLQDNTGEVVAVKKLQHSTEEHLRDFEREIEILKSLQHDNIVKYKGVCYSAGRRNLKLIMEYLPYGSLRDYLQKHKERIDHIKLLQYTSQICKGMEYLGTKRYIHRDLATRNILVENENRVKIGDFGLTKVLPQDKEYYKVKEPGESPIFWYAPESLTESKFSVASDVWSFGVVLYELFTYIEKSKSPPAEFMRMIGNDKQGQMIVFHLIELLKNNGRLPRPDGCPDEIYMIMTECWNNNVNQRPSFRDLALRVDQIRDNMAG", "experiment": "KINOMEscan scanEDGE", "assay_type": "binding", "settings": "20 uM"}, "[3]": {"molecular_target": "T11, JAK3(JH1domain-catalytic) (Homo sapiens, UniProt P52333)", "T11 construct": "JAK3(JH1domain-catalytic); purchased Eurofins DiscoverX (KINOMEscan; SAFETYscan E/IC50 ELECT)", "experiment": "KINOMEscan scanEDGE", "assay_type": "binding", "settings": "20 uM"}, "MEK2": {"molecular_target": "T12, MEK2 (Homo sapiens, UniProt P36507)", "T12 construct": "purchased Eurofins DiscoverX (KINOMEscan; SAFETYscan E/IC50 ELECT)", "T12 sequence (P36507 whole entry)": "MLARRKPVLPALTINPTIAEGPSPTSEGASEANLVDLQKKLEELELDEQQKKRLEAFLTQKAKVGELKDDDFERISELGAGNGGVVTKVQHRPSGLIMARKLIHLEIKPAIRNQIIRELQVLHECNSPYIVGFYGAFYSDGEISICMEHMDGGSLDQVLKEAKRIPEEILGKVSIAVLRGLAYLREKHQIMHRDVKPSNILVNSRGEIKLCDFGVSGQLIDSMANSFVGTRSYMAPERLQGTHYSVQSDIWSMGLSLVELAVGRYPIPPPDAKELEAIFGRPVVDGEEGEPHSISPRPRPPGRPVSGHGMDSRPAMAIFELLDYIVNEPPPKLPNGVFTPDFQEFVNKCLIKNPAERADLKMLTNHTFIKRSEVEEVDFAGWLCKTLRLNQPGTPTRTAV", "experiment": "KINOMEscan scanEDGE", "assay_type": "binding", "settings": "20 uM"}, "PDGFRB": {"molecular_target": "T13, PDGFRB (Homo sapiens, UniProt P09619)", "T13 construct": "purchased Eurofins DiscoverX (KINOMEscan; SAFETYscan E/IC50 ELECT)", "experiment": "KINOMEscan scanEDGE", "assay_type": "binding", "settings": "20 uM"}, "PIK3CG": {"molecular_target": "T14, PIK3CG (Homo sapiens, UniProt P48736)", "T14 construct": "purchased Eurofins DiscoverX (KINOMEscan; SAFETYscan E/IC50 ELECT)", "T14 sequence (P48736 whole entry)": "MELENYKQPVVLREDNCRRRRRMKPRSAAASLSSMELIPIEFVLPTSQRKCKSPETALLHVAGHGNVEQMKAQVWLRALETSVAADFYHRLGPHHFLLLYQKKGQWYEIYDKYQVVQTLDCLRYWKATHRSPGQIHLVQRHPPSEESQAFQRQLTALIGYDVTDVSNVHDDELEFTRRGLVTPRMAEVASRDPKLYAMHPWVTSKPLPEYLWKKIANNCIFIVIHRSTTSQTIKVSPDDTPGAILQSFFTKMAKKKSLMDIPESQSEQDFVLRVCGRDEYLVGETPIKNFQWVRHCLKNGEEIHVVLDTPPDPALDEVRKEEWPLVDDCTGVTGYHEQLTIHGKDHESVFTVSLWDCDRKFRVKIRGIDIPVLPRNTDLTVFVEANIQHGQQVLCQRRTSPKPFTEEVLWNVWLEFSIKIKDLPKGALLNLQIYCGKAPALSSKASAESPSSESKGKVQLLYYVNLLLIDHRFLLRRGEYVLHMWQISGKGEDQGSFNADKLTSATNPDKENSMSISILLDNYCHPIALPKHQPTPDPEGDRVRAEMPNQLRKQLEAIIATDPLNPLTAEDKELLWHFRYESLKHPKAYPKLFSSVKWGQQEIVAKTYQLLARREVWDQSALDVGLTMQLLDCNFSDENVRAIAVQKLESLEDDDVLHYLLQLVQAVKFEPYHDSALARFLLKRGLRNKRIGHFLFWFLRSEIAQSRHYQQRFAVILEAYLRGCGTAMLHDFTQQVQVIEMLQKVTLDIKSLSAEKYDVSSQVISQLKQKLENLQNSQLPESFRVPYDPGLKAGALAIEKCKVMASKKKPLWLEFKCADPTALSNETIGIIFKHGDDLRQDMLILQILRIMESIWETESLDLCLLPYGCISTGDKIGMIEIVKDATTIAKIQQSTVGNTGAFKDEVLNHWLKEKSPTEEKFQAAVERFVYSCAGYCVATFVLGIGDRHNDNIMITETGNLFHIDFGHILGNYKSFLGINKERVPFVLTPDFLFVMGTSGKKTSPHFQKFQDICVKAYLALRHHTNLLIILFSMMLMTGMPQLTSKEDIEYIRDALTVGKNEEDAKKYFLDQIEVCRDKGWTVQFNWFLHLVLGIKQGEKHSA", "experiment": "KINOMEscan scanEDGE", "assay_type": "binding", "settings": "20 uM"}, "PLK1": {"molecular_target": "T15, PLK1 (Homo sapiens, UniProt P53350)", "T15 construct": "purchased Eurofins DiscoverX (KINOMEscan; SAFETYscan E/IC50 ELECT)", "experiment": "KINOMEscan scanEDGE", "assay_type": "binding", "settings": "20 uM"}, "PLK3": {"molecular_target": "T16, PLK3 (Homo sapiens, UniProt Q9H4B4)", "T16 construct": "purchased Eurofins DiscoverX (KINOMEscan; SAFETYscan E/IC50 ELECT)", "T16 sequence (Q9H4B4 whole entry)": "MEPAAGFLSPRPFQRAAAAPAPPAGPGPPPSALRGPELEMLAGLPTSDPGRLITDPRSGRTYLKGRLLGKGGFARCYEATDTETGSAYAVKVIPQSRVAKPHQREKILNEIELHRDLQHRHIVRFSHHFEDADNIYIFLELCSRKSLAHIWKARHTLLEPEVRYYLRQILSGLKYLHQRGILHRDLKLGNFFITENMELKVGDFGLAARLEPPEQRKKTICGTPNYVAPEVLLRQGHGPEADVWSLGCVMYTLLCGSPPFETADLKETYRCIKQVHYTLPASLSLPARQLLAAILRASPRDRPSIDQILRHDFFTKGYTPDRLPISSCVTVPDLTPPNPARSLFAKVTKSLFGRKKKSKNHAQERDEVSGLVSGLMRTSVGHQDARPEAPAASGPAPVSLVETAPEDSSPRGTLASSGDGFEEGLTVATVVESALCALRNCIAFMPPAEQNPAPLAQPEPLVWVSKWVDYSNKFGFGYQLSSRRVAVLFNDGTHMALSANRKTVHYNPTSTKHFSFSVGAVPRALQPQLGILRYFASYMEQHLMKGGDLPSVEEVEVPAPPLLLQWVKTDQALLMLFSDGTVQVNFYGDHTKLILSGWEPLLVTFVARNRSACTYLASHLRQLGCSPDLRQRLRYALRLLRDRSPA", "experiment": "KINOMEscan scanEDGE", "assay_type": "binding", "settings": "20 uM"}, "RAF1": {"molecular_target": "T17, RAF1 (Homo sapiens, UniProt P04049)", "T17 construct": "purchased Eurofins DiscoverX (KINOMEscan; SAFETYscan E/IC50 ELECT)", "experiment": "KINOMEscan scanEDGE", "assay_type": "binding", "settings": "20 uM"}, "ROCK2": {"molecular_target": "T18, ROCK2 (Homo sapiens, UniProt O75116)", "T18 construct": "purchased Eurofins DiscoverX (KINOMEscan; SAFETYscan E/IC50 ELECT)", "experiment": "KINOMEscan scanEDGE", "assay_type": "binding", "settings": "20 uM"}, "[4]": {"molecular_target": "T19, RSK2(Kin.Dom.1-N-terminal) (Homo sapiens, UniProt P51812)", "T19 construct": "RSK2(Kin.Dom.1-N-terminal); purchased Eurofins DiscoverX (KINOMEscan; SAFETYscan E/IC50 ELECT)", "T19 sequence (P51812 1-397 limits assumed)": "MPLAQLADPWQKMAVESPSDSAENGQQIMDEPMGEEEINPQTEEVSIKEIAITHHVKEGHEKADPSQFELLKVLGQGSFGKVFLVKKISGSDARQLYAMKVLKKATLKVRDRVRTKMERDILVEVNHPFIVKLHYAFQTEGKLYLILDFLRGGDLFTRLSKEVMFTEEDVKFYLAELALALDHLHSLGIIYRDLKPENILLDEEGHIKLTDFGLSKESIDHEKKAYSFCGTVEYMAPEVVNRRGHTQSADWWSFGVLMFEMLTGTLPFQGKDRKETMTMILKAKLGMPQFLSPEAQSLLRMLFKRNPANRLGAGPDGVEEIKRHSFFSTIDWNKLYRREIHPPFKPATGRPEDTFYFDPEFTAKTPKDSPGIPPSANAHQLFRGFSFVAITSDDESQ", "experiment": "KINOMEscan scanEDGE", "assay_type": "binding", "settings": "20 uM"}, "TIE2": {"molecular_target": "T20, TIE2 (Homo sapiens, UniProt Q02763)", "T20 construct": "purchased Eurofins DiscoverX (KINOMEscan; SAFETYscan E/IC50 ELECT)", "experiment": "KINOMEscan scanEDGE", "assay_type": "binding", "settings": "20 uM"}, "TSSK1B": {"molecular_target": "T21, TSSK1B (Homo sapiens, UniProt Q9BXA7)", "T21 construct": "purchased Eurofins DiscoverX (KINOMEscan; SAFETYscan E/IC50 ELECT)", "experiment": "KINOMEscan scanEDGE", "assay_type": "binding", "settings": "20 uM"}, "ULK2": {"molecular_target": "T22, ULK2 (Homo sapiens, UniProt Q8IYT8)", "T22 construct": "purchased Eurofins DiscoverX (KINOMEscan; SAFETYscan E/IC50 ELECT)", "experiment": "KINOMEscan scanEDGE", "assay_type": "binding", "settings": "20 uM"}}}
{"smiles": "O=c1ccc(-c2cnc(OCC(F)(F)F)nc2)nn1Cc1cncc(F)c1", "note": "[EDG-5506]", "values": [{"measurement": "decrease in isometric force at protective doses", "setting": "mouse TA muscle; mdx TA in situ", "result": "< 10", "unit": "%"}, {"measurement": "strength drop after in situ lengthening injury", "setting": "mouse TA muscle; mdx TA muscle, 2 lengthening contractions", "result": "dramatically improved"}, {"measurement": "membrane-impermeable dye (procion orange) uptake", "setting": "mdx EDL muscle", "result": "effectively reduced dye uptake"}, {"measurement": "rotarod endurance", "setting": "WT or mdx mice", "result": "no effect"}, {"measurement": "binding, % of control", "setting": "[1]", "result": "94 % of control"}, {"measurement": "binding, % of control", "setting": "ABL1-nonphosphorylated", "result": "96 % of control"}, {"measurement": "binding, % of control", "setting": "AXL", "result": "92 % of control"}, {"measurement": "binding, % of control", "setting": "BRAF(V600E)", "result": "93 % of control"}, {"measurement": "binding, % of control", "setting": "CDK9", "result": "96 % of control"}, {"measurement": "binding, % of control", "setting": "CHEK1", "result": "100 % of control"}, {"measurement": "binding, % of control", "setting": "ERBB4", "result": "93 % of control"}, {"measurement": "binding, % of control", "setting": "FGFR3", "result": "96 % of control"}, {"measurement": "binding, % of control", "setting": "GSK3B", "result": "99 % of control"}, {"measurement": "binding, % of control", "setting": "[2]", "result": "83 % of control"}, {"measurement": "binding, % of control", "setting": "[3]", "result": "100 % of control"}, {"measurement": "binding, % of control", "setting": "MEK2", "result": "72 % of control"}, {"measurement": "binding, % of control", "setting": "PDGFRB", "result": "100 % of control"}, {"measurement": "binding, % of control", "setting": "PIK3CG", "result": "100 % of control"}, {"measurement": "binding, % of control", "setting": "PLK1", "result": "100 % of control"}, {"measurement": "binding, % of control", "setting": "PLK3", "result": "95 % of control"}, {"measurement": "binding, % of control", "setting": "RAF1", "result": "100 % of control"}, {"measurement": "binding, % of control", "setting": "ROCK2", "result": "89 % of control"}, {"measurement": "binding, % of control", "setting": "[4]", "result": "90 % of control"}, {"measurement": "binding, % of control", "setting": "TIE2", "result": "95 % of control"}, {"measurement": "binding, % of control", "setting": "TSSK1B", "result": "97 % of control"}, {"measurement": "binding, % of control", "setting": "ULK2", "result": "82 % of control"}]}
